Experimental data published in US20260092300A1, “MINIMUM INHIBITORY CONCENTRATION RECOGNITION METHOD, APPARATUS AND DEVICE, AND STORAGE MEDIUM” (AUTOBIO LABTEC INSTRUMENTS CO., LTD., priority 2022, published 2026).
In brackets after ≈: the same amount, converted by molar mass.

Experiments:
Format in all cases: cell-based
[1] = test system: ATCC25922 Escherichia coli; experiment: MIC determined by the method (lensless imaging, Siamese neural network image similarity); conditions: incubation 2 hours to 4 hours at 37±2° C.
From the text: (§1) The antimicrobial susceptibility test plate is a commonly used experimental equipment in antimicrobial susceptibility tests, which consists of multiple regularly arranged microwells. In practice, the antimicrobial susceptibility test plate is of different specifications, generally including a 96-well plate and a 128-well plate. In the implementation, the operator first prepares the bacterial suspension of a sample (that is, the to-be-tested bacterial strain); opens an antibiotic-coated antimicrobial susceptibility test plate, of which the microwells are pre-coated with the to-be-tested antibiotic with different gradient concentrations (that is, the preset gradient concentrations), where the concentration gradients of the antibiotic may be designed according to the rules of the clinical laboratory standard institute; adds the bacterial suspension to the microwells via a sample loading well; and places the antimicrobial susceptibility test plate on the imaging platform upon completing the sample loading. The processor controls the imaging platform to perform lensless imaging on the microwells at an initial time instant immediately after the sample is added (that is, the time instant of not completing inhibition) and a time instant immediately after the preset incubation time period (that is, the time instant of completing bacteria inhibition) and saves the data, so as to obtain the testing images and the test control images of the to-be-tested bacterial strain. Alternatively, the processor performs lensless imaging on the microwells and the control microwells at the time instant immediately after the preset incubation time period and saves the data.
(§2) For example, the determination result of the minimum inhibitory concentrations of two commonly used clinical quality control strains (ATCC25922 Escherichia coli and ATCC25923 Staphylococcus aureus) through the method according to the embodiments validates the feasibility of the method. Preparation of the bacterial strain includes: sub-culturing the strain for the second to fourth generations for standby; selecting colonies to prepare a bacterial suspension with a McFarland 0.5 standard; pre-coating antibiotic in the microwells of the antimicrobial susceptibility test plate (the concentration of the antibiotic is prepared according to CLSI standard); mixing the bacterial suspension with agarose at a concentration of 0.6% to 1.0% and a temperature of 37° C. to 40° C. in a dilution ratio of 1:300 to 1:500; adding the mixture sample respectively to the microwells by centrifugation; and then placing the antimicrobial susceptibility test plate in an incubator (37±2° C.) to incubate for 2 hours to 4 hours. Data collection includes: when the incubation is completed, placing the antimicrobial susceptibility test plate on the lensless imaging platform to take the images of the wells (that is, microwells) and recording the images corresponding to different antibiotic concentrations, where the minimum inhibitory concentration (MIC) determined by using the method in the embodiments is obtained based on the images. As shown in Table 1 and Table 2, it can be seen from the MIC results determined through the method and antimicrobial susceptibility results of the clinical gold standard broth microdilution test (BMD) that the MIC results determined through the method according to the embodiment are more accurate and reliable, and the MIC results are determined in 2 hours to 4 hours through the method according to the embodiment, which is more efficient.

[2] = test system: ATCC25922 Escherichia coli; experiment: Broth microdilution test (BMD); conditions: clinical gold standard broth microdilution test
[3] = test system: ATCC25923 Staphylococcus aureus; experiment: MIC determined by the method (lensless imaging, Siamese neural network image similarity); conditions: incubation 2 hours to 4 hours at 37±2° C.
From the text: as §1, §2

[4] = test system: ATCC25923 Staphylococcus aureus; experiment: Broth microdilution test (BMD); conditions: clinical gold standard broth microdilution test

| Molecule | MIC [1] | MIC [2] | MIC [3] | MIC [4] | The method (MIC) [1] | BMD (MIC) [2] |
| --- | --- | --- | --- | --- | --- | --- |
| C[C@@H](O)[C@H]1C(=O)N2C(C(=O)O)=C(SCCN=CN)C[C@H]12 [Imipenem] | 0.12 mg/L (≈ 0.401 µM) | 0.06 to 0.25 mg/L (≈ 0.2 to 0.835 µM) |  |  |  |  |
| CO[C@@]1(NC(=O)Cc2cccs2)C(=O)N2C(C(=O)O)=C(COC(N)=O)CS[C@@H]21 [Cefoxitin] | 1 mg/L (≈ 2.34 µM) | 2 to 4 mg/L (≈ 4.68 to 9.36 µM) | 4 mg/L (≈ 9.36 µM) | 1 to 4 mg/L (≈ 2.34 to 9.36 µM) |  |  |
| CC1(C)S[C@@H]2[C@H](NC(=O)[C@H](N)c3ccccc3)C(=O)N2[C@H]1C(=O)O [Ampicillin] | 4 mg/L (≈ 11.4 µM) | 4 mg/L (≈ 11.4 µM) | 1 mg/L (≈ 2.86 µM) | 1 mg/L (≈ 2.86 µM) |  |  |
| CC[C@H]1OC(=O)[C@H](C)[C@@H](O[C@H]2C[C@@](C)(OC)[C@@H](O)[C@H](C)O2)[C@H](C)[C@@H](O[C@@H]2O[C@H](C)C[C@H](N(C)C)[C@H]2O)[C@](C)(O)C[C@@H](C)C(=O)[C@H](C)[C@@H](O)[C@]1(C)O [Erythromycin] |  |  | 0.5 mg/L (≈ 0.681 µM) | 0.25 to 0.5 mg/L (≈ 0.341 to 0.681 µM) |  |  |
| Gentamycin |  |  |  |  | 0.25 mg/L | 0.25 to 0.5 mg/L |
| NCC[C@H](O)C(=O)N[C@@H]1C[C@H](N)[C@@H](O[C@H]2O[C@H](CN)[C@@H](O)[C@H](O)[C@H]2O)[C@H](O)[C@H]1O[C@H]1O[C@H](CO)[C@@H](O)[C@H](N)[C@H]1O [Amikacin] | 4 mg/L (≈ 6.83 µM) | 1 to 4 mg/L (≈ 1.71 to 6.83 µM) |  |  |  |  |
